ChEMBL document CHEMBL1149057, “Mucus synthesis and sulfhydryl groups in cytoprotection mediated by dehydroleucodine, a sesquiterpene lactone” (1994)
Calls of active or inactive are those of the source. The calls are words filed in the database; no cut-off is given here.

Key:
Rattus norvegicus [1] = experiment: Gastroprotective effect against ethanol-induced gastric damage in fasted Wistar rat assessed as extent of mucosal damage at 40 mg/kg, po pretreated 30 mins before ethanol challenge in presence of N-ethylmaleimide pretreated 60 mins before ethanol challenge
Rattus norvegicus [2] = experiment: Gastroprotective effect against ethanol-induced gastric damage in fasted Wistar rat assessed as extent of mucosal damage at 40 mg/kg, po pretreated 30 mins before ethanol challenge in presence of N-ethylmaleimide and indomethacin pretreated 60 mins before ethanol challenge
Rattus norvegicus [3] = experiment: Gastroprotective effect in fasted Wistar rat assessed as increase in rate of gastric mucus glycoprotein synthesis at 40 mg/kg, po after 1 hr by N-acetyl-D-[1-3H]glucosamine incorporation method relative to control; type: functional, Gastric mucosa
Rattus norvegicus [4] = experiment: Gastroprotective effect against ethanol-induced gastric damage in fasted Wistar rat assessed as extent of mucosal damage at 40 mg/kg, po pretreated 30 mins before ethanol challenge measured after 60 mins
Rattus norvegicus [5] = experiment: Gastroprotective effect against ethanol-induced gastric damage in fasted Wistar rat assessed as extent of mucosal damage at 40 mg/kg, po pretreated 30 mins before ethanol challenge in presence of indomethacin pretreated 60 mins before ethanol challenge; type: functional, Stomach
Rattus norvegicus [6] = species: Rattus norvegicus; experiment: Gastroprotective effect in pylorus-ligated Wistar rat assessed as inhibition of acid secretion; type: functional, organism-based

SMILES: C=C1C(=O)O[C@@H]2[C@H]3C(C)=CC(=O)C3=C(C)CC[C@@H]12 [DEHYDROLEUCODIN]
- UI (Rattus norvegicus [1]): 2.4
- UI (Rattus norvegicus [2]): 3.3
- fold change (FC) (Rattus norvegicus [3]): 7
- UI (Rattus norvegicus [4]): 0.3
- UI (Rattus norvegicus [5]): 1.2
- Activity (Rattus norvegicus [6]): inactive
